# Experimental data: patent US5834461A, “Tricyclic benzazepine vasopressin antagonists” (American Cyanamid Company, priority 1997, dated 1998)
# Legend:
# [1] = target: vasopressin V1 receptor (rat liver plasma membranes) (Rattus norvegicus, UniProt P30560); experiment: Binding Assay to Rat Hepatic V1 Receptors; details: for IC50: rat hepatic V1; for inhibition at 10 µM: 2 h, rat hepatic, read-out: V1, % at concentration in brackets
# [2] = target: T1, rat kidney medullary V2 receptors (Rattus norvegicus, UniProt Q00788); experiment: Binding Assay to Rat Kidney Medullary V2 Receptors; details: for IC50: rat kidney medullary V2; for inhibition at 10 µM: rat kidney, read-out: V2, % at concentration in brackets
# T1 construct: Medullary tissues from rat kidneys are dissected out; from tissue; host or cells: rat kidney medulla membranes
# T1 sequence (Q00788 whole entry): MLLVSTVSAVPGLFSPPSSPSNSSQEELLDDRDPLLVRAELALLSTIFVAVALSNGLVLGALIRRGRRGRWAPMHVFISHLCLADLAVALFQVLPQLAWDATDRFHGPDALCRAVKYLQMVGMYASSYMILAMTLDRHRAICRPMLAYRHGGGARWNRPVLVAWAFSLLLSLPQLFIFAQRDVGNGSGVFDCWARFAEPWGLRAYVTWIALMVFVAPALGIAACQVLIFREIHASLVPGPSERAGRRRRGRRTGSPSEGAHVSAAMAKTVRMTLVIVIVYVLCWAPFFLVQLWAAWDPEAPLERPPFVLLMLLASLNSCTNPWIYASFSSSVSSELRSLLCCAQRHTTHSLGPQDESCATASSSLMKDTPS
# Outline: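 Competition binding: [3H]AVP at 0.8 nM, test compounds from 50% DMSO, and membranes from rat kidney medulla, left 120 min on the bench. Filtration then liquid scintillation counting measured bound ligand; 1.0 μM unlabeled ligand set non-specific binding.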
# [3] = test system: vasopressin V2; experiment: Vasopressin V2 Antagonist Activity in Conscious Hydrated Rats (diuretic effect); format: in vivo, normal Sprague-Dawley rats; details: AVP 0.4 μg/kg i.p.
# Outline: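 Conscious rats were dosed orally at 0.1–100 mg/kg, and AVP 0.4 μg/kg i.p. in peanut oil followed 1 h later. Urine volume, osmolality and Na/K/Cl were compared against AVP-treated controls, with non-AVP rats as water-loading controls.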
# [4] = target: T2, oxytocin receptors (rat uterus membranes) (Rattus norvegicus, UniProt P70536); experiment: Oxytocin Receptor Binding; set-up: species or system female Sprague-Dawley rats
# T2 construct: The resulting pellet containing the oxytocin receptors is resuspended; from tissue; host or cells: uterus membranes of DES-treated female Sprague-Dawley rats
# T2 sequence (P70536 1-388): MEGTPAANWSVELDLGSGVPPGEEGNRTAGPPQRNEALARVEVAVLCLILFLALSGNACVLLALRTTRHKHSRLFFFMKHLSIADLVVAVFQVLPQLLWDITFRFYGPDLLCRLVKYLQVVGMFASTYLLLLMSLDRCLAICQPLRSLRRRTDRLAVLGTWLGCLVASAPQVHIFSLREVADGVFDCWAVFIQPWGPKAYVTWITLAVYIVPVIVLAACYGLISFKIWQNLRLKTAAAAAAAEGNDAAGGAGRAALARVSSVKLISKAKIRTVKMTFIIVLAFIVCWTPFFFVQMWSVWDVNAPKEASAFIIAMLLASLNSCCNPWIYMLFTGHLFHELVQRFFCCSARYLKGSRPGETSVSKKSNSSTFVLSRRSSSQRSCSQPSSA
# Protocol: Female Sprague-Dawley rats weighing approximately 200-250 g are injected intramuscularly (i.m.) with 0.3 mg/kg of body weight of diethylstilbestrol (DES). The rats are sacrificed 18 hours later under pentobarbital anesthesia. The uteri are dissected out, cleaned of fat and connective tissues and rinsed in 50 ml of normal saline. The tissue pooled from six rats is homogenized in 50 ml of […] Tris.HCl, containing 0.5 mM dithiothreitol and 1.0 mM EDTA, adjusted to pH 7.4, using a polytron at setting 6 with three passes of 10 sec each. The homogenate is passed through two (2) layers of cheesecloth and the filtrate centrifuged at 1000×g for 10 min. The clear supernatant is removed and recentrifuged at 165,000×g for 30 min. The resulting pellet containing the oxytocin receptors is resuspended in 50.0 mM Tris.HCl containing 5.0 mM MgCl2 at pH 7.4, to give a protein concentration of 2.5 mg/ml of tissue suspension. This preparation is used in subsequent binding assays with [^3 H]Oxytocin.
# Binding of 3,5-[^3 H]Oxytocin ([^3 H]OT) to its receptors is done in microtiter plates using [^3 H]OT, at various concentrations, in an assay buffer of 50.0 mM Tris.HCl, pH 7.4 and containing 5.0 mM MgCl2, and a mixture of protease inhibitors: BSA, 0.1 mg; aprotinin, 1.0 mg; 1,10-phenanthroline, 2.0 mg; […], 10.0 mg; and PMSF, 0.3 mg per 100 ml of buffer solution. Non-specific binding is determined in the presence of 1.0 uM unlabeled OT. The binding reaction is terminated after 60 min., at 22° C., by rapid filtration through glass fiber filters using a Brandel® cell harvester (Biomedical Research and Development Laboratories, Inc., Gaithersburg, Md.). Competition experiments are conducted at equilibrium using 1.0 nM [^3 H]OT and varying the concentration of the displacing agents. The concentrations of agent displacing 50% of [^3 H]OT at its sites (IC50) are calculated by a computer assisted LUNDON-2 program (LUNDON SOFTWARE INC., Ohio, USA).
# [5] = test system: vasopressin V1; experiment: Vasopressin V1 Antagonist Activity in Conscious Rats (vasopressin vasopressor response); format: in vivo, rat (spontaneously hypertensive rats); details: 30 mg/kg i.v.
# Outline: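 Conscious rats had the ventral caudal tail artery cannulated into the lower abdominal aorta under local procaine anesthesia, plus a caudal vein cannula for intravenous dosing. Pulsatile blood pressure was recorded via a Statham P23Db transducer. Vasopressor responses to vasopressin injections were measured before and after compound dosing, with percent antagonism calculated relative to the pre-drug response taken as 100%.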
# [6] = target: T3, vasopressin V1 receptor subtype in human platelet membranes (Homo sapiens, UniProt P37288); experiment: Binding to Vasopressin V1 Receptor Subtype in Human Platelet Membranes; details: human platelet V1 (*)
# T3 construct: tissue Hudson Valley Blood Services; host or cells: human blood platelets (frozen platelet rich plasma)
# T3 sequence (P37288 whole entry): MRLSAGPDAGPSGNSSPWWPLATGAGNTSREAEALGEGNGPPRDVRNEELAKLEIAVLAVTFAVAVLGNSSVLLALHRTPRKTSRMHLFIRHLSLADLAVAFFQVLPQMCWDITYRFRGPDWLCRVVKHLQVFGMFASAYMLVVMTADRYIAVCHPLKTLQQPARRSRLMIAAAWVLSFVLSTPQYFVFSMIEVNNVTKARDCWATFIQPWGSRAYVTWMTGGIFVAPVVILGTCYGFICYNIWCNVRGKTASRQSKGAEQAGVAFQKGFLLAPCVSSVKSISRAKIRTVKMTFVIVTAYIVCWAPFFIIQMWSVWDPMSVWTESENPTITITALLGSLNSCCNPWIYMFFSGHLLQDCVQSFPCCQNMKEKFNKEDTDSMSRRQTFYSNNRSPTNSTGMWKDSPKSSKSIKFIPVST
# Protocol: (a) Platelet Membrane Preparation:
# Frozen platelet rich plasma (PRP), received from the Hudson Valley Blood Services, are thawed to room temperature. (Platelet Source: Hudson Valley Blood Services, Westchester Medical Center, Valhalla, N.Y.). The tubes containing the PRP are centrifuged at 16,000×g for 10 min. at 4° C. and the supernatant fluid discarded. The platelets resuspended in an equal volume of 50.0 mM Tris.HCl, pH 7.5 containing 120 mM NaCl and 20.0 mM EDTA. The suspension is recentrifuged at 16,000×g for 10 min. This washing step is repeated one more time. The wash discarded and the lysed pellets homogenized in low ionic strength buffer of Tris.HCl, 5.0 mM, pH 7.5 containing 5.0 mM EDTA. The homogenate is centrifuged at 39,000×g for 10 min. The resulting pellet is resuspended in Tris.HCl buffer, 70.0 mM, pH 7.5 and recentrifuged at 39,000×g for 10 min. The final pellet is resuspended in 50.0 mM Tris.HCl buffer pH 7.4 containing 120 mM NaCl and 5.0 mM KCl to give 1.0-2.0 mg protein per ml of suspension.
# (b) Binding to Vasopressin V1 Receptor Subtype in Human Platelet Membranes:
# In wells of a 96 well format microtiter plate, add 100 μl of 50.0 mM Tris.HCl buffer containing 0.2% BSA and a mixture of protease inhibitors (aprotinin, leupeptin etc.). Then add 20 μl of [^3 H]Ligand (Manning or Arg^8 Vasopressin), to give final concentrations ranging from 0.01 to 10.0 nM. Initiate the binding by adding 80.0 μl of platelet suspension (approx. 100 μg protein). Mix all reagents by pipetting the mixture up and down a few times. Non specific binding is measured in the presence of 1.0 μM of unlabeled ligand (Manning or Arg^8 Vasopressin). Let the mixture stand undisturbed at room temperature for ninety (90) min. Upon this time, rapidly filter off the incubate under vacuum suction over GF/B filters, using a Brandel Harvester. The radioactivity caught on the filter disks is determined by the addition of liquid scintillant and counting in a liquid scintillator.
# Chain of vasopressin V1 receptor (rat liver plasma membranes) (P30560 whole entry): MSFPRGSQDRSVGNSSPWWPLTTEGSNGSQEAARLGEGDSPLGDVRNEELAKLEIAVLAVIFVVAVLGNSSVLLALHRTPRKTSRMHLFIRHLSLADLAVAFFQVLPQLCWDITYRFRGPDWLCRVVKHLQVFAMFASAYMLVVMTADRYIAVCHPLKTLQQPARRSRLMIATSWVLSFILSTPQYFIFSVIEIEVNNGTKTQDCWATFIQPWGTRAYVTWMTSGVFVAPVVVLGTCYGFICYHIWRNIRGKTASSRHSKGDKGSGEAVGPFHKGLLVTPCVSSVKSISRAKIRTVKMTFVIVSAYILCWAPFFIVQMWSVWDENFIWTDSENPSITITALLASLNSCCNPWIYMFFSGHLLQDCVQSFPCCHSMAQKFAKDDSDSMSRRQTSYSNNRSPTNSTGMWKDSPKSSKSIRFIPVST
Structure (SMILES),IC50 [1] [nM],IC50 [2] [nM],inhibition at 10 µM [4] [%],inhibition at 10 µM [1] [%],inhibition at 10 µM [2] [%],IC50 ([4]; second part of Table V) [nM],other results
"Cc1cccc(C(=O)Nc2ccc(C(=O)N3Cc4ccccc4Cc4ccccc43)cc2)c1C [Example 11, N-[4-[(6,11-Dihydro-5H-dibenz[b,e]azepin-5-yl)carbonyl]phenyl]-2,3-dimethylbenzamide]",160,33,71,–,–,–,Osmolality ([3]; 30 mg/kg orally): 1114 ± 55 mOsm/kg; Urine Volume ([3]; 30 mg/kg orally): 9.7 ± 0.6 ml/4 hrs.; IC50 ([4]; first part of Table V): 4400 nM
"O=C(Nc1ccc(C(=O)N2Cc3ccccc3Cc3ccccc32)cc1)c1cc(Cl)cc(Cl)c1Cl [Example 249, N-[4-[(6,11-Dihydro-5H-dibenz[b,e]azepin-5-yl)-carbonyl]phenyl]-2,3 5-trichlorobenzamide]",–,–,38,61,88,–,–
"O=C(Nc1ccc(C(=O)N2Cc3ccccc3Cc3ccccc32)cc1)c1ccc(Cl)c(Cl)c1 [Example 250, N-[4-[(6,11-Dihydro-5H-dibenz[b,e]azepin-5-yl)-carbonyl]phenyl]-3,4-dichlorobenzamide]",–,–,15,62,77,–,Osmolality ([3]; 30 mg/kg orally): 1378 mOsm/kg; Urine Volume ([3]; 30 mg/kg orally): 6.5 ml/4 hrs.
"Cc1c(F)cccc1C(=O)Nc1ccc(C(=O)N2Cc3ccccc3Cc3ccccc32)cc1 [Example 254, N-(4-[(6,11-Dihydro-5H-dibenz[b,e]azepin-5-yl)-carbonyl]phenyl]-2-methyl-3-fluorobenzamide]",100,37,95,–,–,–,MAX % Inhibition [5]: 74%; Time of max % inhibition [5]: 60 min; IC50 ([4]; first part of Table V): 1900 nM
"O=C(Nc1ccc(C(=O)N2Cc3ccccc3Cc3ccccc32)c(Cl)c1)c1ccc(Cl)cc1Cl [Example 256, N-[4-[(6,11-Dihydro-5H-dibenz[b,e]azepin-5-yl)-carbonyl]-3-chlorophenyl]-2,4-dichlorobenzamide]",100,54,47,–,–,–,IC50 ([4]; first part of Table V): 6500 nM
"Cc1ccccc1COC(=O)c1ccc(C(=O)N2Cc3ccccc3Cc3ccccc32)cc1 [Example 266, (2-Methylphenyl)methyl 4-[(6,11-dihydro-5H-dibenz[b,e]azepin-5-yl)carbonyl)benzoate]",–,–,15,–,–,–,Osmolality ([3]; 10 mg/kg orally): 1186 mOsm/kg; Urine Volume ([3]; 10 mg/kg orally): 4.3 ml/4 hrs.; MAX % Inhibition [5]: 21%; Time of max % inhibition [5]: 120 min
"Cc1ccccc1C(=O)Nc1ccc(C(=O)N2CCc3cnoc3-c3ccccc32)cc1 [Example 345, N-[4-[(4,5-Dihydro-6H-isoxazolo[4,5-d][1]benzazepin-6-yl)carbonyl]phenyl]-2-methylbenzamide]",–,–,2,99,81,–,–
"O=C(c1ccc(NS(=O)(=O)c2ccccc2Cl)cc1)N1Cc2ccccc2Cc2ccccc21 [Example 450, 5-[4-[[(2-Chlorophenyl)sulfonyl]amino]benzoyl]-6,11-dihydro-5H-dibenz [b,e]azepine]",–,–,33,87,29,–,–
CN(C)CC(=O)Nc1ccc(C(=O)N2Cc3ccccc3Cc3ccccc32)cc1 [Example 454],–,–,78,64,33,2500,–
Cc1c(F)cccc1C(=O)Nc1ccc(C(=O)N2CCc3c[nH]nc3-c3ccccc32)c(Cl)c1 [Example 582],1300,5.3,–,–,–,275,–
"O=C(Nc1ccc(C(=O)N2CCc3c[nH]nc3-c3ccccc32)cc1)c1ccc(Cl)cc1Cl [Example 583, N-[4-[(4,5-Dihydropyrazolo[4,3-d][1]benzazepin-6(2H)-yl)carbonyl]phenyl]-2,4-dichlorobenzamide]",82,40,95,–,–,330,–
"Cc1ccccc1C(=O)Nc1ccc(C(=O)N2CCc3c[nH]nc3-c3ccccc32)cc1 [Example 585, N-[4-[(4.5-Dihydropyrazolo[4.3-d][1]benzaze-in-6(2H)-yl)carbonyl]phenyl]-2-methylbenzamide]",–,32,99,–,–,250,IC50 [6]: 12 nM
